Read-outs that look alike come from different tables or passages of the source.
Target: RORγ (Homo sapiens, UniProt P51449)
Experiment: RORγ Gal4 Reporter Gene Assay
Assay type: cell-based
Experimental: Determination of a ligand mediated Gal4 promoter driven transactivation to quantify ligand binding to RORγ was performed as follows: DNA encoding three different RORγ protein fragments was cloned into vector pCMV-BD (Stratagene). Expression was under control of a CMV promoter and as fusion to the DNA-binding domain of the yeast protein GAL4. Other vectors used were pFR-Luc (Stratagene) as regulated reporter plasmid. pFR-Luc contains a synthetic promoter with five tandem repeats of the yeast GAL4 binding sites that control expression of the Photinus pyralis (American firefly) luciferase gene. In order to improve experimental accuracy the plasmid pRL-CMV was cotransfected. pRL-CMV contains the constitutive CMV promoter, controlling the expression of the Renilla reniformis luciferase.
The medium is supplemented with 10% fetal bovine serum, 0.1 mM nonessential amino acids, 1 mM sodium pyruvate, 1% Glutamax and 100 units Penicilin/[…] per mL at 37° C. in 5% CO2.
For the assay, […] were plated per well in 96 well plates in 100 μL per well, incubated over night at 37° C. in 5% CO2. […] About 4 h after addition of the transfection solution, fresh Minimal Essential Medium (MEM, same composition as used for plating cells, but without serum) was added. Then compound stocks, prediluted in MEM (same composition as used for plating cells) were added (final vehicle concentration not exceeding 0.1%).
All experiments were done at least in triplicates.

[1] = firefly (FF) luciferase, 293T cells, read-out: pIC50 (FF) (converted)
[2] = renilla normalised (RENnorm) luciferase, 293T cells, read-out: pIC50 (REN) (converted)

RORγ, sequence (P51449 whole entry, looked up, the tested form may be a part): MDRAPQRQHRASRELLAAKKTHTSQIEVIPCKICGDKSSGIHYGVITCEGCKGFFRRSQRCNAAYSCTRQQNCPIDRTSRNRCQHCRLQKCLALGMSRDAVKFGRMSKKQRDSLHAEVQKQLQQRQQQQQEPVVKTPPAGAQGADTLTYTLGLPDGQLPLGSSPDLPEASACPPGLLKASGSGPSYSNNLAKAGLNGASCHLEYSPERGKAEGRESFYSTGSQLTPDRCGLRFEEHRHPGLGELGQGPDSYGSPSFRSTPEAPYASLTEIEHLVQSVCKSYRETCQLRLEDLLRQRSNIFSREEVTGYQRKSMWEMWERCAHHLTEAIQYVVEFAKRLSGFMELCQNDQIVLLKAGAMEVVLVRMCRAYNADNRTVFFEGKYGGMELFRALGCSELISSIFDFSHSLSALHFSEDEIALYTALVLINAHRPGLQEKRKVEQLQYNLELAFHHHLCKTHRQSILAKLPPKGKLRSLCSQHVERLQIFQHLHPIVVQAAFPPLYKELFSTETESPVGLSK

| SMILES | pIC50 (FF) | pIC50 (REN) | also measured |
| --- | --- | --- | --- |
| C[C@H](NS(=O)(=O)c1ccc(-c2sc(C(=O)NCC(C)(C)O)nc2CC2CCC2)c(OC(F)F)c1)C(F)(F)F [21/21] | nt/7.7/7.8 | nt/7.7/7.8 |  |
| CC(C)(C)NS(=O)(=O)c1ccc(-c2sc(C(=O)NC3CCS(=O)(=O)CC3)nc2-c2cccnc2)c2ccccc12 [300/12] | nt/6.1/6.2 | nt/6.1/6.2 |  |
| CC(C)(C)NS(=O)(=O)c1ccc(-c2sc(C(=O)N3CCS(=O)(=O)CC3)nc2CC2CCCCC2)c2ccccc12 [6/55] | nt/8.0/8.2 | nt/8.0/8.2 |  |
| CCC(C)(C)NS(=O)(=O)c1ccc(-c2sc(C(=O)NCC(C)(C)O)nc2C(=O)N2CCC(C)CC2)c2ccccc12 [304/13] | nt/7.6/7.7 | nt/7.6/7.7 |  |
| CC(C)(C#N)CNC(=O)c1nc(CC2CCCCC2)c(-c2ccc(S(=O)(=O)NC(C)(C)C)c3ccccc23)s1 [6/58] | nt/8.7/8.7 | nt/8.7/8.7 |  |
| CC(C)(O)CNC(=O)c1nc(CC2CCCCC2)c(-c2ccc(S(=O)(=O)NC(C)(C)C)cc2OC(F)(F)F)s1 [21/8] | nt/7.7/7.8 | nt/7.7/7.8 |  |
| CCN(C(C)(C)C)S(=O)(=O)c1ccc(-c2sc(C(=O)NCC(C)(C)O)nc2C(=O)N2CCC(C)CC2)c2ccccc12 [304/20] | nt/7.4/7.7 | nt/7.4/7.7 |  |
| CC(C)(C)NS(=O)(=O)c1ccc(-c2sc(C(=O)NC3CCS(=O)(=O)CC3)nc2CC2CCC(F)(F)CC2)c2ccccc12 [21/12] | nt/8.0/8.2 | nt/8.0/8.2 |  |
| CC(C)(C)NS(=O)(=O)c1ccc(-c2sc(C(=O)N3CC(S(C)(=O)=O)C3)nc2CC2CCCCC2)c2ccccc12 [6/57] | nt/7.9/8.2 | nt/7.9/8.2 |  |
| CC1CCN(C(=O)c2nc(C(=O)N3CC4(CCS(=O)(=O)CC4)C3)oc2-c2ccc(S(=O)(=O)NC(C)(C)C)c3ccccc23)CC1 [Example 306, N-(tert-Butyl)-4-(2-(7,7-dioxido-7-thia-2-azaspiro[3.5]nonane-2-carbonyl)-4-(4-methyl-piperidine-1-carbonyl)oxazol-5-yl)naphthalene-1-sulfonamide] | nt/5.6/5.6 | nt/5.6/5.6 |  |
| CC(C)(O)CNC(=O)c1nc(C(=O)N2CCCCC2(C)C)c(-c2ccc(S(=O)(=O)NC(C)(C)C)c3ccccc23)s1 [304/6] | nt/6.6/6.8 | nt/6.6/6.8 |  |
| CC1CCN(C(=O)c2nc(C(=O)N3CC4(CCS(=O)(=O)CC4)C3)sc2-c2ccc(S(=O)(=O)NC(C)(C)C)c3ccccc23)CC1 [304/16] | nt/6.6/6.6 | nt/6.6/6.6 |  |
| CC(C)(C)NS(=O)(=O)c1ccc(-c2sc(C(=O)N[C@H]3C[C@H](C(=O)O)C3)nc2C2CCCCC2)c2ccccc12 [300/17] | nt/8.0/8.0 | nt/8.0/8.0 |  |
| CC1CCN(C(=O)c2nc(C(=O)NCC(C)(C)O)sc2-c2ccc(S(=O)(=O)NCC(C)(C)O)c3ccccc23)CC1 [304/22] | nt/5.8/5.8 | nt/5.8/5.8 |  |
| C[C@H](NS(=O)(=O)c1ccc(-c2sc(C(=O)NCC(C)(C)O)nc2CC2CCC2)c(OC(F)(F)F)c1)C(F)(F)F [21/18] | nt/8.0/8.1 | nt/8.0/8.1 |  |
| CN(C(=O)c1nc(CC2CCCCC2)c(-c2cc(C(C)(C)C)cc(C3(C)CC3)c2)s1)C1CCOCC1 [6/52] | nt/6.9/6.9 | nt/6.9/6.9 |  |
| CC(C)(C)NS(=O)(=O)c1ccc(-c2sc(C(=O)NCC(C)(C)c3noc(=O)[nH]3)nc2CC2CCCCC2)c2ccccc12 [6/60] | nt/8.5/8.7 | nt/8.5/8.7 |  |
| CC1CCN(C(=O)c2nc(C(=O)N3CC4(CCOCC4)C3)sc2-c2ccc(S(=O)(=O)NC(C)(C)C)c3ccccc23)CC1 [304/17] | nt/7.2/7.2 | nt/7.2/7.2 |  |
| CC(C)(C)NS(=O)(=O)c1ccc(-c2nc(C(=O)NC3CCS(=O)(=O)CC3)sc2CC2CCCCC2)c2ccccc12 [25/2] | nt/9.0/9.0 | nt/9.0/9.0 |  |
| CCC(C)(C)NS(=O)(=O)c1ccc(-c2sc(C(=O)NC3CCOCC3)nc2C(=O)N2CCC(C)CC2)c2ccccc12 [304/15] | nt/7.6/7.7 | nt/7.6/7.7 |  |
| CCCc1nc(C(=O)NCC(C)(C)O)sc1-c1ccc(S(=O)(=O)N[C@@H](C)C(F)(F)F)c2ccccc12 [300/9] | nt/7.9/7.9 | nt/7.9/7.9 |  |

| SMILES | pIC50 (FF) | pIC50 (REN) | also measured |
| --- | --- | --- | --- |
| CC(C)(C)c1cc(-c2nc(C(=O)N[C@H]3C[C@H](C(=O)O)C3)oc2CC2CCCCC2)cc(C2(C)CC2)c1 [103/2] |  |  | IC50 [1]: 398 nM; IC50 [2]: 251 nM |
| CC1CCN(C(=O)c2nc(C(=O)NCC(C)(C)O)sc2-c2ccc(S(=O)(=O)NCC(C)(C)C)c3ccccc23)CC1 [304/19] | nt/7.4/7.5 | nt/7.4/7.5 |  |
| CC(C)(C)NS(=O)(=O)c1ccc(-c2sc(C(=O)NC3CCS(=O)(=O)CC3)nc2-c2cccc(Cl)c2)c2ccccc12 [300/14] | nt/8.2/8.2 | nt/8.2/8.2 |  |
| C[C@H](NS(=O)(=O)c1ccc(-c2sc(C(=O)NCC(C)(C)O)nc2CC2CCC2)c(C(F)(F)F)c1)C(F)(F)F [21/20] | nt/7.7/7.7 | nt/7.7/7.7 |  |
| CC(C)(C)NS(=O)(=O)c1ccc(-c2sc(C(=O)N3CCC(C(C)(C)C(=O)O)C3)nc2CC2CCCCC2)c2ccccc12 (stereo not shown) [6/50] | nt/7.6/7.7 | nt/7.6/7.7 |  |
| CCC(C)(C)NS(=O)(=O)c1ccc(-c2sc(C(=O)NC3CCS(=O)(=O)CC3)nc2C(=O)N2CCC(C)CC2)c(Cl)c1C [Example 301, 5-(2-Chloro-3-methyl-4-(N-(tert-pentyl)sulfamoyl)phenyl)-N-(1,1-dioxidotetrahydro-2H-thiopyran-4-yl)-4-(4-methylpiperidine-1-carbonyl)thiazole-2-carboxamide] | nt/7.8/7.9 | nt/7.8/7.9 |  |
| CCC(C)(C)NS(=O)(=O)c1ccc(-c2sc(C(=O)NCc3ncc(S(C)(=O)=O)s3)nc2C(=O)N2CCC(C)CC2)c(Cl)c1C [Example 303, 5-(2-Chloro-3-methyl-4-(N-(tert-pentyl)sulfamoyl)phenyl)-4-(4-methylpiperidine-1-carbonyl)-N-((5-(methylsulfonyl)thiazol-2-yl)methyl)thiazole-2-carboxamide] | nt/7.7/7.7 | nt/7.7/7.7 |  |
| CC(C)(C)c1cc(-c2nc(C(=O)N[C@H]3C[C@H](C(=O)O)C3)sc2CC2CCCCC2)cc(C2(C)CC2)c1 [Example 25, trans-3-(4-(3-(tert-Butyl)-5-(1-methylcyclopropyl)phenyl)-5-(cyclohexylmethyl)thiazole-2-carboxamido)cyclobutanecarboxylic acid] |  |  | pIC50 (FF) (firefly (FF) luciferase, 293T cells): nt/6.1/6.1; pIC50 (REN) (renilla normalised (RENnorm) luciferase, 293T cells): nt/6.1/6.1 |
| CCCc1nc(C(=O)N[C@H]2C[C@H](C(=O)O)C2)sc1-c1ccc(S(=O)(=O)NC(C)(C)C)c2ccccc12 [300/8] |  |  | IC50 [1]: 79.4 nM; IC50 [2]: 63.1 nM |
| CC1CCN(C(=O)c2nc(C(=O)NCC(C)(C)O)sc2-c2ccc(S(=O)(=O)N3CCCCC3(C)C)c3ccccc23)CC1 [304/25] | nt/8.0/7.6 | nt/8.0/7.6 |  |
| Cc1c(-c2sc(C(=O)NC3CCS(=O)(=O)CC3)nc2CC2CCCCC2)cc(Cl)c(S(N)(=O)=O)c1Cl [17/2] | nt/5.7/5.9 | nt/5.7/5.9 |  |
| CC1CCN(C(=O)c2nc(C(=O)NCC(C)(C)O)sc2-c2ccc(S(=O)(=O)NCC(F)(F)F)c3ccccc23)CC1 [304/21] | nt/7.4/7.4 | nt/7.4/7.4 |  |
| CC(C)(O)CNC(=O)c1nc(CC2CCC2)c(-c2ccc(S(=O)(=O)NC(C)(C)C)cc2OC(F)(F)F)s1 [21/24] | nt/7.5/7.6 | nt/7.5/7.6 |  |
| CC(C)(C)NS(=O)(=O)c1ccc(-c2oc(C(=O)N3CC4(C3)CS(=O)(=O)C4)nc2CC2CCCCC2)c2ccccc12 [100/24] | nt/7.5/7.7 | nt/7.5/7.7 |  |
| CC(C)(C)NS(=O)(=O)c1ccc(-c2nc(C(=O)N[C@H]3C[C@H](C(=O)O)C3)sc2CC2CCCCC2)c2ccccc12 [Example 25/1] | nt/8.9/8.8 | nt/8.9/8.8 |  |
| CC(C)(C)NS(=O)(=O)c1ccc(-c2oc(C(=O)NC3CCS(=O)(=O)CC3)nc2CC2CCCCC2)c2ccncc12 [100/28] | nt/7.1/7.2 | nt/7.1/7.2 |  |
| CC(C)(C)c1cc(-c2nc(C(=O)NC3CCS(=O)(=O)CC3)oc2CC2CCCCC2)cc(C2(C)CC2)c1 [103/3] | nt/6.6/6.6 | nt/6.6/6.6 |  |
| CC(C)(C)NS(=O)(=O)c1ccc(-c2sc(C(=O)NC3CCS(=O)(=O)CC3)nc2-c2cccc(C(N)=O)c2)c2ccccc12 [300/16] | nt/6.0/6.1 | nt/6.0/6.1 |  |
| CC(C)(C)NS(=O)(=O)c1ccc(-c2sc(C(=O)N[C@H]3C[C@H](C(=O)O)C3)nc2CC2CCCCC2)c(OC(F)(F)F)c1 [21/7] |  |  | IC50 [1]: 10 nM; IC50 [2]: 6.31 nM |
| CC1(NC(=O)c2cc(-c3sc(C(=O)NC4CCS(=O)(=O)CC4)nc3CC3CCCCC3)cc(C3(C)CC3)c2)COC1 [10/4] | nt/7.9/7.9 | nt/7.9/7.9 |  |

— US10301272B2, “Carboxamide or sulfonamide substituted thiazoles and related derivatives as modulators for the orphan nuclear receptor ROR[γ]” (Phenex Pharmaceuticals AG, priority 2012, dated 2019)
